Here are results for 1 compound from PMC8481799, “Lichen Polyphenolic Compounds for the Eradication of Candida albicans Biofilms” (Frontiers in Cellular and Infection Microbiology, 2021).

For assay [1], the system named is Candida parapsilosis biofilm. Further details: method as in Kvasnickova et al., 2015. The settings on record: at 300 μg/ml, 24-h biofilm; ref Kvasnickova et al., 2015; cited from earlier work.
Assay [2] deals with 24-h Candida orthopsilosis biofilms. On the set-up: method as in Pires et al., 2012. The note with it: 24-h biofilm, vs untreated controls; ref Pires et al., 2012; cited from earlier work.
In assay [3] the test system is C. albicans (ATCC: 90028) biofilm. Further details: method as in Nithyanand et al., 2015b. The settings on record: at 100 µg/ml, added before the adhesion step, ring test; ref Nithyanand et al., 2015b; cited from earlier work.
The test system of assay [4] is 24-h C. parapsilosis biofilms. Further details: method as in Pires et al., 2012. The note with it: 24-h biofilm, vs untreated controls; ref Pires et al., 2012; cited from earlier work.
The test system of assay [5] is 48-h C. albicans biofilm. On the set-up: method as in Peralta et al., 2016. The note with it: 4 μg/ml, ref Peralta et al., 2016, cited from earlier work.
Assay [6] relates to Candida albicans preformed 24-h-old biofilm. Put plainly: Anti-biofilm test (XTT) on preformed 24-h-old biofilm. The assay is classed as cell-based, Candida albicans ATCC 28367. The settings on record: for IC50: Candida albicans. The procedure: (§1) The anti-maturation and/or anti-biofilm activities of lichen compounds were assessed as previously described ([Millot et al., 2017]). Briefly, C. albicans (ATCC® 28367™) cultures were prepared at a final concentration of 1 × 10^7 cells/ml in yeast nitrogen base medium (Difco, Detroit, MI), supplemented with 50 mM glucose (Sigma, St Louis, MO) (YNB-Glc) from a preculture incubated overnight at 37°C without shaking.
(§2) A total of 200 µl of yeast culture was added to each well of untreated 96-well tissue culture plates. The plates were then incubated at 37°C for 2 h for the anti-maturation test and for 24 h for the anti-biofilm test. After aspiration of spent media and free-floating microorganisms, 250 μl per well of YNB-Glucose and 50 μl lichen compound samples obtained by serial twofold dilutions of each stock solution over the final range 200 to 0.097 μg/ml or 200 to 6.25 μg/ml were added to wells. Controls were also present: untreated yeasts (negative control) and yeasts treated with 2% DMSO. After 24 and/or 48 h of incubation at 37°C followed by aspiration of spent media and free-floating microorganisms, the wells were washed with phosphate-buffered saline (PBS) and observed under an inverted optical microscope (IX51® inverted microscope, Olympus). Biofilms were quantified using a metabolic assay based on the reduction of a tetrazolium salt (XTT) and absorbance measurements at 492 nm (microplate reader LP400; Sanofi Diagnostics Pasteur) ([Cocuaud, 2005]; [Dalleau et al., 2008]). The percent inhibition was determined from the absorbance values compared to the mean absorbance value obtained for untreated wells (100%).
(§3) Concentrations of lichen products inhibiting 50% of biofilms were determined for each tested sample by constructing a dose–response curve and selecting the closest tested concentration value above or equal to 50% inhibition. All anti-maturation and anti-biofilm tests were performed at least in triplicate in at least two separate experiments. The lichen compounds with MMIC50 or/and MBIC50 less than 100 μg/ml were considered as potentially useful.
(§4) Anti-maturation and anti-biofilm tests were performed with C. albicans ATCC® 28367™, as previously described, in 96-well microplates with evernic acid alone, cyclodextrin alone, and evernic acid included in cyclodextrin at over 50 to 1.5 µM final range of evernic acid (serial twofold dilution).

In assay [7] the test system is C. albicans. On the set-up: method as in Nithyanand et al., 2015b. The settings on record: at 100 µg/ml; ref Nithyanand et al., 2015b; cited from earlier work.
The subject of assay [8] is Candida albicans biofilms on the maturation phase. In words: Anti-maturation test (XTT), compounds added after 2 h adherence. The class given is cell-based, Candida albicans ATCC 28367. The note with it: for IC50: Candida albicans, read-out: Anti-maturation activity MMIC50. The method, then: as §1, §2, §3, §4
Assay [9] deals with Candida krusei biofilm. Further details: method as in Kvasnickova et al., 2015. The note with it: at 300 μg/ml, 24-h biofilm; ref Kvasnickova et al., 2015; cited from earlier work.
The test system of assay [10] is C. albicans planktonic yeast. Put plainly: Minimal inhibitory concentration, broth microdilution (CLSI M27-A3 adapted). The assay is classed as cell-based, Candida albicans ATCC 28367. The procedure:
Stock solutions of lichen compounds were prepared in DMSO at 10 mg/ml and were used for all the experiments performed. Their antifungal minimum inhibitory concentrations (MICs) were determined by a broth microdilution method (CLSI reference M27-A3 micromethod adapted protocol) as previously described ([Millot et al., 2017]). Briefly, an inoculum of C. albicans ATCC® 28367™ (American Type Culture Collection) adjusted to 0.5 Mac Farland absorbance was diluted 1:1,000 in RPMI-MOPS. A volume of this yeast culture was added to an equivalent volume of compound solution at several concentrations (100 to 0.048 μg/ml final) in 96-well microtiter plates. Controls as untreated yeasts (negative control), yeasts treated with 2% DMSO and yeasts treated with fluconazole (positive control) were included. After 24 and 48 h incubation at 37°C without shaking, the MICs were determined. All tests were performed in duplicate in at least two separate experiments.

Like-named read-outs stand apart in the source and are kept apart here. A value given as a limit tells only on which side of the number the result lay.

For the compound `CC(=O)C1=C(O)C=C2Oc3c(C(C)=O)c(O)c(C)c(O)c3C2(C)C1=O` (stereo in doubt) [Compound 11, (+)-usnic acid], the Anti-biofilm properties result in assay [1] and in assay [9] was “no anti-biofilm properties” each time. For the same compound, the figures for the “Concentration inducing 80% inhibition of cell growth” value in assay [2] and in [4] were 31.2 µg/mL and 62.5 µg/mL, respectively. Further, the Biofilm inhibition in [3] is reported as 65%. Besides, the Biofilm biomass in assay [5] (control 18.39) is on record as 4.91 μm^3/μm^2. Further, the “Inhibition of biofilm biomass” value in [5] is 73.3%. For the same compound, in [5], the “Reduction of biofilm thickness” value is reported as 76.8%. Besides, in [6] (24-h-old biofilm, in words), the Anti-biofilm activity result is listed as “no anti-biofilm activity”. Also, the IC50 was above 200 µg/mL in assay [6] (24 h, read-out: Anti-biofilm activity MBIC50); above 200 µg/mL in assay [6] (48 h, read-out: Anti-biofilm activity MBIC50); at least 100 µg/mL in [6] (read-out: MBIC50); above 200 µg/mL in assay [8] (24 h); above 200 µg/mL in assay [8] (48 h). Besides, in assay [7], the Antifungal activity result is listed as “no antifungal activity”. In assay [8] (at 200 µg/ml), the Anti-maturation activity result is reported as “not active”. The same compound showed an MIC in assay [10] above 100 µg/mL.
